Source: ChEMBL document CHEMBL4825763, “Discovery of potent and selective Bcl-2 inhibitors with acyl sulfonamide skeleton” (Bioorg Med Chem, 2021)
Activity calls are given as the source filed them. The calls are words filed in the database; no cut-off is given here.

Legend:
[1] = target: Apoptosis regulator Bcl-2 (Homo sapiens, UniProt P10415); assay: Displacement of Bak derived peptide from Bcl-2 (unknown origin) measured after 15 mins by microplate reader assay
[2] = target: Bcl-2-like protein 1 (Homo sapiens, UniProt Q07817); assay: Displacement of Bak derived peptide from Bcl-xL (unknown origin) measured after 15 mins by microplate reader assay
[3] = test system: RS4-11; assay: Antiproliferative activity against human RS4-11 cells assessed as inhibition of cell proliferation measured after 72 hrs by CCK8 assay; type: functional, cell-based; conditions: RS4-11, 72 h
[4] = target: T1, Caspase-3 (Canis lupus familiaris) (UniProt Q8MKI5); assay: Induction of caspase 3 activity in dog platelets assessed as cleavage of Ac-DEVD-Pna at 0.5 to 2.5 uM using Ac-DEVD-pNA as substrate incubated for 90 mins; type: tissue-based; conditions: Platelet, dose 0.5-2.5 µM
T1 sequence (whole entry): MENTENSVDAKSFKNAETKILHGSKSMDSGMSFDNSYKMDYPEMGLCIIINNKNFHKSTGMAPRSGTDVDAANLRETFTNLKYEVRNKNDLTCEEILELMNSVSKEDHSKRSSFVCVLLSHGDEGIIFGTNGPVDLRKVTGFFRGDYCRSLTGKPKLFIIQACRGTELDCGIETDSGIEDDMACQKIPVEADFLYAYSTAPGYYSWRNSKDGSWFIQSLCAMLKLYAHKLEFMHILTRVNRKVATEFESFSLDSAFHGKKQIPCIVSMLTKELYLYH

[5] = Toxicity in C57BL/6 mouse plasma assessed as effect on platelet count at 300 mg/kg, ig for 4 hrs; type: organism-based; conditions: in vivo, po
[6] = Metabolic stability in mouse liver microsomes assessed as parent compound remaining incubated for 60 mins in presence of NADPH; type: ADME, Microsome; conditions: read-out: Stabilty
[7] = Metabolic stability in rat liver microsomes assessed as parent compound remaining incubated for 60 mins in presence of NADPH; type: ADME, Microsome; conditions: read-out: Stabilty
[8] = Metabolic stability in human liver microsomes assessed as parent compound remaining incubated for 60 mins in presence of NADPH; type: ADME, Microsome; conditions: read-out: Stabilty
[9] = Tmax in rat at 5 mg/kg, ig administered as single dose measured upto 24 hrs by LC-MS/MS analysis; type: ADME, organism-based; conditions: in vivo, po
[10] = Cmax in rat at 5 mg/kg, ig administered as single dose measured upto 24 hrs by LC-MS/MS analysis; type: ADME, organism-based; design: route intragastric, dose 5 mg/kg, time <=24; conditions: in vivo, po
[11] = AUC (0 to t) in rat at 5 mg/kg, ig administered as single dose measured upto 24 hrs by LC-MS/MS analysis; type: ADME, organism-based; design: route intragastric, dose 5 mg/kg, time <=24; conditions: in vivo, po
[12] = AUC (0 to infinity) in rat at 5 mg/kg, ig administered as single dose measured upto 24 hrs by LC-MS/MS analysis; type: ADME, organism-based; design: route intragastric, dose 5 mg/kg, time <=24; conditions: in vivo, po
[13] = Half life in rat at 5 mg/kg, ig administered as single dose measured upto 24 hrs by LC-MS/MS analysis; type: ADME, organism-based; conditions: in vivo, po
[14] = MRT (0 to t) in rat at 5 mg/kg, ig administered as single dose measured upto 24 hrs by LC-MS/MS analysis; type: ADME, organism-based; conditions: in vivo, po
[15] = Tmax in mouse at 10 mg/kg, ig administered as single dose measured upto 24 hrs by LC-MS/MS analysis; type: ADME, organism-based; conditions: in vivo, po
[16] = Cmax in mouse at 10 mg/kg, ig administered as single dose v measured upto 24 hrs by LC-MS/MS analysis; type: ADME, organism-based; design: route intragastric, dose 10 mg/kg, time <=24; conditions: in vivo, po
[17] = AUC (0 to t) in mouse at 10 mg/kg, ig administered as single dose measured upto 24 hrs by LC-MS/MS analysis; type: ADME, organism-based; design: route intragastric, dose 10 mg/kg, time <=24; conditions: in vivo, po
[18] = AUC (0 to infinity) in mouse at 10 mg/kg, ig administered as single dose measured upto 24 hrs by LC-MS/MS analysis; type: ADME, organism-based; design: route intragastric, dose 10 mg/kg, time <=24; conditions: in vivo, po
[19] = Half life in mouse at 10 mg/kg, ig administered as single dose measured upto 24 hrs by LC-MS/MS analysis; type: ADME, organism-based; conditions: in vivo, po
[20] = MRT (0 to t) in mouse at 10 mg/kg, ig administered as single dose measured upto 24 hrs by LC-MS/MS analysis; type: ADME, organism-based; conditions: in vivo, po

Apoptosis regulator Bcl-2, sequence (P10415 whole entry): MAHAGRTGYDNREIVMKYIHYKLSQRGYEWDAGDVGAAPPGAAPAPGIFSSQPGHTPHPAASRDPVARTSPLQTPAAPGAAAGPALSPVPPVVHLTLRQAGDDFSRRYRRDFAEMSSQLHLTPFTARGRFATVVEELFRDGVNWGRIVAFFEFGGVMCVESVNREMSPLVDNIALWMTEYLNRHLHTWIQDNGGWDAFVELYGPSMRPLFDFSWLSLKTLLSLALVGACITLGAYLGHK
Bcl-2-like protein 1, sequence (Q07817 whole entry): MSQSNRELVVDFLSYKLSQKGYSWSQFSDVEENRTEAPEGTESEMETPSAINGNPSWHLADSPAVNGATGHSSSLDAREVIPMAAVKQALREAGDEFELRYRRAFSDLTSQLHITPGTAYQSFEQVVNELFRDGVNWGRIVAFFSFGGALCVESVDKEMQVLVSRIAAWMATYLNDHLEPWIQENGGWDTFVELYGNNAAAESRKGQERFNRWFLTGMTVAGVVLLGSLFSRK

| Structure (SMILES) | IC50 [1] [µM] | IC50 [2] [µM] | IC50 [3] [µM] | also measured |
| --- | --- | --- | --- | --- |
| CN1CCC(CNc2ccc(S(=O)(=O)NC(=O)c3ccc(N4CCN(CC5=C(c6ccc(C(F)(F)F)cc6)CC(C)(C)CC5)CC4)cc3Oc3cnc4[nH]ccc4c3)cc2[N+](=O)[O-])C1 (stereo unspecified) | 0.0024 | 0.0357 | 0.0083 | – |
| CC1(C)CCC(CN2CCN(c3ccc(C(=O)NS(=O)(=O)c4ccc(OC5CCOCC5)c([N+](=O)[O-])c4)c(Oc4cnc5[nH]ccc5c4)c3)CC2)=C(c2ccc(C(F)(F)F)cc2)C1 | 0.0084 | > 2 | 0.375 | – |
| CC1(C)CCC(CN2CCN(c3ccc(C(=O)NS(=O)(=O)c4ccc(NCC5CCOCC5)c([N+](=O)[O-])c4)c(Oc4cnc5[nH]ccc5c4)c3)CC2)=C(c2cccc(C(F)(F)F)c2)C1 | – | – | 0.063 | – |
| CC1(C)CCC(CN2CCN(c3ccc(C(=O)NS(=O)(=O)c4ccc(OCC5CCOCC5)c([N+](=O)[O-])c4)c(Oc4cnc5[nH]ccc5c4)c3)CC2)=C(c2ccc(C(F)(F)F)cc2)C1 | 0.001 | 0.862 | 0.0059 | Activity [4]: inactive; Activity [5]: Non-Toxic; remaining at 1 h [6]: 76.6%; remaining at 1 h [7]: 74.8%; remaining at 1 h [8]: 75.8%; Tmax [9]: 2.67 h; Cmax [10]: 0.438 µg/mL; AUC(0-t) at 24 h [11]: 2.62 µg·h/mL; AUC(0-inf) [12]: 3.13 µg·h/mL; half-life [13]: 4.5 h; MRT last at 24 h [14]: 5.18 h; Tmax [15]: 4 h; Cmax [16]: 0.92 µg/mL; AUC(0-t) at 24 h [17]: 6.96 µg·h/mL; AUC(0-inf) [18]: 7 µg·h/mL; half-life [19]: 2.99 h; MRT last at 24 h [20]: 5.7 h |
| CCN1CCC(COc2ccc(S(=O)(=O)NC(=O)c3ccc(N4CCN(CC5=C(c6ccc(C(F)(F)F)cc6)CC(C)(C)CC5)CC4)cc3Oc3cnc4[nH]ccc4c3)cc2[N+](=O)[O-])CC1 | 0.0005 | 0.0346 | 0.0049 | – |
| CC1(C)CCC(CN2CCN(c3ccc(C(=O)NS(=O)(=O)c4ccc(NCC5CCOCC5)c([N+](=O)[O-])c4)c(Oc4cnc5[nH]ccc5c4)c3)CC2)=C(c2ccc(C(F)(F)F)cc2)C1 | 0.0015 | 0.788 | 0.0062 | – |
| CC1(C)CCC(CN2CCN(c3ccc(C(=O)NS(=O)(=O)c4ccc(NCC5CCOCC5)c([N+](=O)[O-])c4)c(Oc4cnc5[nH]ccc5c4)c3)CC2)=C(c2ccc(C(F)(F)F)c(Cl)c2)C1 | – | > 2 | 0.081 | – |
| COc1ccc(C2=C(CN3CCN(c4ccc(C(=O)NS(=O)(=O)c5ccc(NCC6CCOCC6)c([N+](=O)[O-])c5)c(Oc5cnc6[nH]ccc6c5)c4)CC3)CCC(C)(C)C2)cc1 | 0.0038 | 0.813 | 0.012 | – |
| CC(C)C(=O)N1CCC(CNc2ccc(S(=O)(=O)NC(=O)c3ccc(N4CCN(CC5=C(c6ccc(C(F)(F)F)cc6)CC(C)(C)CC5)CC4)cc3Oc3cnc4[nH]ccc4c3)cc2[N+](=O)[O-])CC1 | 0.0024 | 0.453 | 0.0053 | – |
| CC1(C)CCC(CN2CCN(c3ccc(C(=O)NS(=O)(=O)c4ccc(OCC5CCSCC5)c([N+](=O)[O-])c4)c(Oc4cnc5[nH]ccc5c4)c3)CC2)=C(c2ccc(C(F)(F)F)cc2)C1 | 0.00165 | 0.5 | 0.015 | – |
| CC1(C)CCC(CN2CCN(c3ccc(C(=O)NS(=O)(=O)c4ccc(NC5CCOC5)c([N+](=O)[O-])c4)c(Oc4cnc5[nH]ccc5c4)c3)CC2)=C(c2ccc(C(F)(F)F)cc2)C1 (stereo unspecified) | 0.0019 | 0.837 | 0.032 | – |
| CN1CCC(COc2ccc(S(=O)(=O)NC(=O)c3ccc(N4CCN(CC5=C(c6ccc(C(F)(F)F)cc6)CC(C)(C)CC5)CC4)cc3Oc3cnc4[nH]ccc4c3)cc2[N+](=O)[O-])C1 (stereo unspecified) | 0.00075 | 0.0168 | 0.01 | – |
| CC(Oc1ccc(S(=O)(=O)NC(=O)c2ccc(N3CCN(CC4=C(c5ccc(C(F)(F)F)cc5)CC(C)(C)CC4)CC3)cc2Oc2cnc3[nH]ccc3c2)cc1[N+](=O)[O-])C1CCOCC1 (stereo unspecified) | 0.0092 | 0.618 | 0.269 | – |
| CC1(C)CCC(CN2CCN(c3ccc(C(=O)NS(=O)(=O)c4ccc(OCC5CCCOC5)c([N+](=O)[O-])c4)c(Oc4cnc5[nH]ccc5c4)c3)CC2)=C(c2ccc(C(F)(F)F)cc2)C1 (stereo unspecified) | 0.003 | 0.761 | 0.012 | – |
| CC1(C)CCC(CN2CCN(c3ccc(C(=O)NS(=O)(=O)c4ccc(NCC5CCOCC5)c([N+](=O)[O-])c4)c(Oc4cnc5[nH]ccc5c4)c3)CC2)=C(c2ccccc2C(F)(F)F)C1 | 0.0017 | 0.2 | 0.018 | – |
| CC1(C)CCC(CN2CCN(c3ccc(C(=O)NS(=O)(=O)c4ccc(OCC5CCOC5)c([N+](=O)[O-])c4)c(Oc4cnc5[nH]ccc5c4)c3)CC2)=C(c2ccc(C(F)(F)F)cc2)C1 (stereo unspecified) | 0.0044 | 1.7 | 0.047 | – |
| CCN(CC)CCCNc1ccc(S(=O)(=O)NC(=O)c2ccc(N3CCN(CC4=C(c5ccc(C(F)(F)F)cc5)CC(C)(C)CC4)CC3)cc2Oc2cnc3[nH]ccc3c2)cc1[N+](=O)[O-] | 0.0003 | 0.025 | 0.003 | – |
| CC1(C)CCC(CN2CCN(c3ccc(C(=O)NS(=O)(=O)c4ccc(NCC5CCOCC5)c([N+](=O)[O-])c4)c(Oc4cnc5[nH]ccc5c4)c3)CC2)=C(c2ccc(Cl)cc2C(F)(F)F)C1 | – | > 2 | 0.074 | – |
| CC1(C)CCC(CN2CCN(c3ccc(C(=O)NS(=O)(=O)c4ccc(NCC5CCOC5)c([N+](=O)[O-])c4)c(Oc4cnc5[nH]ccc5c4)c3)CC2)=C(c2ccc(C(F)(F)F)cc2)C1 (stereo unspecified) | 0.0047 | 0.897 | 0.0242 | – |
| CN(C)CCCNc1ccc(S(=O)(=O)NC(=O)c2ccc(N3CCN(CC4=C(c5ccc(C(F)(F)F)cc5)CC(C)(C)CC4)CC3)cc2Oc2cnc3[nH]ccc3c2)cc1[N+](=O)[O-] | 0.00089 | 0.029 | 0.0039 | – |
| CC1(C)CCC(CN2CCN(c3ccc(C(=O)NS(=O)(=O)c4ccc(NCC5CCOCC5)c([N+](=O)[O-])c4)c(Oc4cnc5[nH]ccc5c4)c3)CC2)=C(c2ccc(Cl)cc2)C1 [VENETOCLAX] | – | – | 0.0018 | Activity [4]: inactive; Activity [5]: Toxic; remaining at 1 h [6]: 58.8%; remaining at 1 h [7]: 46.3%; remaining at 1 h [8]: 54.9%; Tmax [9]: 2.67 h; Cmax [10]: 0.355 µg/mL; AUC(0-t) at 24 h [11]: 1.38 µg·h/mL; AUC(0-inf) [12]: 1.47 µg·h/mL; half-life [13]: 1.9 h; MRT last at 24 h [14]: 3.55 h; Tmax [15]: 1.67 h; Cmax [16]: 1.31 µg/mL; AUC(0-t) at 24 h [17]: 7.76 µg·h/mL; AUC(0-inf) [18]: 8.1 µg·h/mL; half-life [19]: 2.78 h; MRT last at 24 h [20]: 4.71 h |
